Measurements taken from BindingDB's records for doi:10.1021/jm500629e (Mcgill University, 2014).

Biological target: T1, Farnesyl pyrophosphate synthase (Homo sapiens, UniProt P14324)
T1 sequence (P14324 whole entry): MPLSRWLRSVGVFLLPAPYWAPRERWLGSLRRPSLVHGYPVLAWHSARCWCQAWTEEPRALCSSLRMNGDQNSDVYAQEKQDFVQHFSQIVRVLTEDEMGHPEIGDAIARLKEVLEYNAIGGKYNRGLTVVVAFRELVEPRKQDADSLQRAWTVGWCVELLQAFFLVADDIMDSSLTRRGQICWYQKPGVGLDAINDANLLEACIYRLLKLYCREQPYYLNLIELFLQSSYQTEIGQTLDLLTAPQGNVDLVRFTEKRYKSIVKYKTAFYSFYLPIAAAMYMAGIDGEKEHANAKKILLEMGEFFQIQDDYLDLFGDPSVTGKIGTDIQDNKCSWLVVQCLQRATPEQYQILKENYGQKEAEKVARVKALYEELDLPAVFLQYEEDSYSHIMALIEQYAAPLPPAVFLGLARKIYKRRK
Experiment: Inhibition of FPPS (unknown origin)

SMILES: Cc1ccc(-c2cc3c(NCC(=O)O)ncnc3s2)cc1
- IC50: > 20 µM

SMILES: O=P(O)(O)C(Nc1ncnc2sc(-c3ccc(OC4CC4)cc3)cc12)P(=O)(O)O
- IC50: 0.2 µM

SMILES: O=P(O)(O)CCc1cccnc1
- IC50: 0.2 µM

SMILES: Cc1ccc(-c2cc3c(NC(c4ccccc4)P(=O)(O)O)ncnc3s2)cc1Cl (stereo not given)
- IC50: 1.2 µM

SMILES: Cc1ccc(-c2cc3c(NC(P(=O)(O)O)P(=O)(O)O)ncnc3s2)cc1
- IC50: 0.2 µM

SMILES: Cc1ccc(-c2cc3c(NCP(=O)(O)O)ncnc3s2)cc1Cl
- IC50: 3.3 µM

SMILES: O=P(O)(O)C(Cc1cccnc1)P(=O)(O)O [(1-phosphono-2-pyridin-3-yl-ethyl)-phosphonic acid]
- IC50: 0.2 µM

SMILES: Cc1ccc(-c2cc3c(NCCP(=O)(O)O)ncnc3s2)cc1
- IC50: 0.2 µM

SMILES: Cc1ccc(-c2cc3c(NCP(=O)(O)O)ncnc3s2)cc1
- IC50: 4.5 µM

SMILES: Cc1ccc(-c2cc3c(CCP(=O)(O)O)ncnc3s2)cc1
- IC50: 0.2 µM
